Columns and labels:
TLR8 = target: T1, TLR8 (Homo sapiens, UniProt Q9NR97); assay: HEK/293 TLR8 Cell Assay; type: cell-based; conditions: HEK cells, R848 agonist 30 uM final concentration, Steady-Glo readout; read-out: TLR8 potency
T1 construct: expressed in transfected cells; host or cells: HEK/293 reporter cells (NF-kB luciferase)
T1 sequence (Q9NR97 27-1041): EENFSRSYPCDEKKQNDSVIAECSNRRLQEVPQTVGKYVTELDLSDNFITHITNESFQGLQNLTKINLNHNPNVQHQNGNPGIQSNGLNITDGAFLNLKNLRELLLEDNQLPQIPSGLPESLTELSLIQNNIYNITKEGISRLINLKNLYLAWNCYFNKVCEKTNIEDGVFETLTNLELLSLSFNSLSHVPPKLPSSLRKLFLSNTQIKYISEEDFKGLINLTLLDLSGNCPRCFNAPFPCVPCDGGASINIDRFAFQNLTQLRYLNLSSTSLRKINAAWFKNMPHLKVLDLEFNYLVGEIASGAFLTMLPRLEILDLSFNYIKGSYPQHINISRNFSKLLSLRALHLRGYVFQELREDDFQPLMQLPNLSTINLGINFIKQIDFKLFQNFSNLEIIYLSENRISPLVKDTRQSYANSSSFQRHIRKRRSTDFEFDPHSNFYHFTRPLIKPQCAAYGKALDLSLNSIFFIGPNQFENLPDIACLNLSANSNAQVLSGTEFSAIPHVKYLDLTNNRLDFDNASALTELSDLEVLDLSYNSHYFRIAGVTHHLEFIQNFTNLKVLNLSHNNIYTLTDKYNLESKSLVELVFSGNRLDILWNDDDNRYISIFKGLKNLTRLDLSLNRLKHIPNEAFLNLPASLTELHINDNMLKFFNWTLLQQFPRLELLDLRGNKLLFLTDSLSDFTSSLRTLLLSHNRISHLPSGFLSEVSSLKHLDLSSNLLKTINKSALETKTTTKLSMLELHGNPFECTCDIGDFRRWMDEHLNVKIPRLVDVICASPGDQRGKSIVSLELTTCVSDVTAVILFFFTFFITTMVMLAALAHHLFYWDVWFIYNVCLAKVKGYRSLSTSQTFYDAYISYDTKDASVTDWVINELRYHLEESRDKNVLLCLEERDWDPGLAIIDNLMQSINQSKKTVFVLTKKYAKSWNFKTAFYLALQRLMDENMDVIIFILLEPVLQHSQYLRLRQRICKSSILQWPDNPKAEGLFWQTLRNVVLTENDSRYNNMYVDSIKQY

TLR7 = target: T2, TLR7 (Homo sapiens, UniProt Q9NYK1); assay: HEK/293 TLR7 Cell Assay; type: cell-based; conditions: TLR7/NFKb HEK cells, R848 agonist 10 uM final concentration, Steady-Glo readout; read-out: TLR7 potency
T2 construct: expressed in transfected cells; host or cells: HEK/293 cells carrying TLR7 and an NF-kB luciferase reporter
T2 sequence (Q9NYK1 27-1049): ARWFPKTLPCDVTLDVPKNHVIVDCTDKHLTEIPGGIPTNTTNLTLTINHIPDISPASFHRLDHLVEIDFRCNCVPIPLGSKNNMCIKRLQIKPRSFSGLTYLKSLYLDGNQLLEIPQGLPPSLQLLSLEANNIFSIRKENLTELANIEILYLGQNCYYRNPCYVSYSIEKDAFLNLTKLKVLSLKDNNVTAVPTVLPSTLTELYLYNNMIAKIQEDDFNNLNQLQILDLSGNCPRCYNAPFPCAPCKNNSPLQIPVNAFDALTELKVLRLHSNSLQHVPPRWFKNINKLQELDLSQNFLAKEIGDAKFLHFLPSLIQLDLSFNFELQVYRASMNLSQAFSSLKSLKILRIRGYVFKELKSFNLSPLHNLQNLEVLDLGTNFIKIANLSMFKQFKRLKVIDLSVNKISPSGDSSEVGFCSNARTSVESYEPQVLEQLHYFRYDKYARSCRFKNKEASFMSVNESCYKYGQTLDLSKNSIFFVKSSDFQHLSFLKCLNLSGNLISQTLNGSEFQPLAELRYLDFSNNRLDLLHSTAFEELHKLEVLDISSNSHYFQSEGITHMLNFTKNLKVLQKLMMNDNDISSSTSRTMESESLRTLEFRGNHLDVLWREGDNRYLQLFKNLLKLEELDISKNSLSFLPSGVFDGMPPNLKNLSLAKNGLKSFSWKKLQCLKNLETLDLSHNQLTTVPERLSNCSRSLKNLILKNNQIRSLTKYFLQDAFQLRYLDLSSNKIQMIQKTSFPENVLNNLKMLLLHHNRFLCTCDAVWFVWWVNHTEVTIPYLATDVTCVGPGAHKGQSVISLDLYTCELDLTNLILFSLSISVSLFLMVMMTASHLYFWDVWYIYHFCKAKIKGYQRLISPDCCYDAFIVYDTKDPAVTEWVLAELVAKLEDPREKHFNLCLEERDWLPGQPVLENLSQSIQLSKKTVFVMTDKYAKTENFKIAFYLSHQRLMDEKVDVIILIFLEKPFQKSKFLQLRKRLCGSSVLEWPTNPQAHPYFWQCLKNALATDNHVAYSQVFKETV
Procedure, shortened: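 Compounds added to HEK cells expressing TLR7 with an NFκB reporter 30 min ahead of 10 uM R848 challenge; luciferase signal (Steady-Glo) measured after 5 h, cells having been seeded 24 h earlier at 5000 per well.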

| IC50 (TLR8) [nM] | IC50 (TLR7) [nM] | Structure (SMILES) |
| --- | --- | --- |
| < 75 | 75 to 150 | C[C@H]1C[C@@H](NC(=O)CCN)CN(c2ccc(C(F)(F)F)c3ncccc23)C1 [Example 166, 3-Amino-N-[(3R,5S)-5-methyl-1-(8-trifluoromethyl-quinolin-5-yl)-piperidin-3-yl]-propionamide] |
| < 75 | < 75 | C[C@@H]1CN(c2cnc(C#N)c3ncccc23)C[C@H](CN2CCN(C)CC2)O1 [Example 368, 5-[(2R,6S)-2-Methyl-6-(4-methyl-piperazin-1-ylmethyl)-morpholin-4-yl]-naphthyridine-8-carbonitrile] |
| < 75 | < 75 | Cc1c(F)cc(N2C[C@H](CN3CCC(N4CCCC4)CC3)O[C@H](C)C2)c2cccnc12 [Example 223, 7-Fluoro-8-methyl-5-[(2R,6S)-2-methyl-6-(4-pyrrolidin-1-yl-piperidin-1-ylmethyl)-morpholin-4-yl]-quinoline] |
| > 150 | > 150 | C[C@@H]1CN(c2cnc(C#N)c3ncccc23)C[C@H](C(=O)NC2CCNCC2(F)F)O1 (stereo partly drawn) [Example 302, (2R,6R)-4-(8-Cyano-[1,7]naphthyridin-5-yl)-6-methyl-morpholine-2-carboxylic acid (3,3-difluoro-piperidin-4-yl)-amide] |
| 75 to 150 | > 150 | C[C@H]1C[C@@H](NC(=O)CC2CCN(C(=O)NC(C)(C)CO)CC2F)CN(c2cnc(C#N)c3ncccc23)C1 (stereo partly drawn) [Example 149, 4-{[(3R,5S)-1-(8-Cyano-[1,7]naphthyridin-5-yl)-5-methyl-piperidin-3-ylcarbamoyl]-methyl}-3-fluoro-piperidine-1-carboxylic acid (2-hydroxy-1,1-dimethyl-ethyl)-amide] |
| > 150 | 75 to 150 | C[C@@H]1CN(c2ccc(C#N)c3nccnc23)C[C@H](C(=O)NCCCS(C)(=O)=O)O1 [Example 260, (2R,6R)-4-(8-cyanoquinoxalin-5-yl)-N-(3-methanesulfonylpropyl)-6-methylmorpholine-2-carboxamide] |
| < 75 | < 75 | C[C@@H]1CN(c2cnc(C#N)c3ncccc23)C[C@H](CNC(=O)[C@]2(F)CCNC2)O1 (single isomer, unassigned) [Example 337] |
| 75 to 150 | < 75 | N#Cc1ncc(N2C[C@H](N)C[C@H](C(F)(F)F)C2)c2cccnc12 [Example 9, 5-((3R,5S)-3-Amino-5-trifluoromethyl-piperidin-1-yl)-[1,7]naphthyridine-8-carbonitrile] |
| < 75 | < 75 | C[C@H]1C[C@@H](NC(=O)CC2(O)CCN(C)CC2)CN(c2ccc(C(F)(F)F)c3ncccc23)C1 [Example 84, 2-(4-hydroxy-1-methylpiperidin-4-yl)-N-[(3R,5S)-5-methyl-1-[8-(trifluoromethyl)quinolin-5-yl]piperidin-3-yl]acetamide] |
| < 75 | 75 to 150 | C[C@H]1C[C@@H](NC(=O)[C@@H]2CCCN2)CN(c2ccc(C(F)(F)F)c3ncccc23)C1 [Example 176, (S)-Pyrrolidine-2-carboxylic acid [(3R,5S)-5-methyl-1-(8-trifluoromethyl-quinolin-5-yl)-piperidin-3-yl]-amide] |
| < 75 | < 75 | C[C@H]1C[C@@H](NCC(=O)N2CCOCC2)CN(c2ccc(C(F)(F)F)c3ncccc23)C1 [Example 18, 2-{[(3R,5S)-5-methyl-1-[8-(trifluoromethyl)quinolin-5-yl]piperidin-3-yl]amino}-1-(morpholin-4-yl)ethan-1-one] |
| < 75 | < 75 | CN1CCN(CC(=O)N[C@@H]2C[C@H](C(F)(F)F)CN(c3ccc(C(F)(F)F)c4ncccc34)C2)CC1 [Example 66, 2-(4-methylpiperazin-1-yl)-N-[(3R,5S)-5-(trifluoromethyl)-1-[8-(trifluoromethyl)quinolin-5-yl]piperidin-3-yl]acetamide] |
| < 75 | 75 to 150 | CC(C(=O)N[C@@H]1C[C@H](C(F)(F)F)CN(c2ccc(C#N)c3ncccc23)C1)N1CCN(C)CC1 (single isomer, unassigned) [Example 100] |

| Structure (SMILES) | IC50 (TLR8) [nM] | IC50 (TLR7) [nM] |
| --- | --- | --- |
| N#Cc1ccc(N2C[C@H](NC(=O)[C@H]3CCCN3)C[C@H](C(F)(F)F)C2)c2cccnc12 [Example 126, (2R)—N-[(3R,5S)-1-(8-cyanoquinolin-5-yl)-5-(trifluoromethyl)piperidin-3-yl]pyrrolidine-2-carboxamide] | > 150 | 75 to 150 |
| C[C@H]1C[C@@H](NC2CS(=O)(=O)C2)CN(c2ccc(C#N)c3nccnc23)C1 [Example 12, 8-[(3R,5S)-3-(1,1-Dioxo-1lambda6-thietan-3-ylamino)-5-methyl-piperidin-1-yl]-quinoxaline-5-carbonitrile] | 75 to 150 | > 150 |
| C[C@@H]1CN(c2ccc(C#N)c3ncncc23)C[C@H](CNC(=O)[C@@]2(F)CCNC2)O1 (single isomer, unassigned) [Example 344] | < 75 | < 75 |
| C[C@H]1C[C@@H](NC(=O)[C@@H](O)C(C)(C)O)CN(c2ccc(C#N)c3nccnc23)C1 [Example 161, (S)—N-[(3R,5S)-1-(8-Cyano-quinoxalin-5-yl)-5-methyl-piperidin-3-yl]-2,3-dihydroxy-3-methyl-butyramide] | < 75 | < 75 |
| C[C@@H]1CN(c2ccc(C#N)c3nccnc23)C[C@H](C(=O)NCC2CCS(=O)(=O)C2)O1 (stereo partly drawn) [Example 257, (2R,6R)-4-(8-cyanoquinoxalin-5-yl)-N-[(1,1-dioxo-1λ^6-thiolan-3-yl)methyl]-6-methylmorpholine-2-carboxamide] | < 75 | < 75 |
| C[C@@H]1CN(c2ccc(C#N)c3nccnc23)C[C@H](C(=O)NC[C@H]2COCCN2)O1 (single isomer, unassigned) [Example 296] | < 75 | < 75 |
| CC(C)(O)CNC(=O)[C@@H]1CN(c2ccc(C#N)c3nccnc23)C[C@H](C(F)(F)F)O1 (single isomer, unassigned) [Example 285] | > 150 | > 150 |
| N#Cc1ccc(N2C[C@@H](C(F)(F)F)O[C@@H](C(=O)NC[C@]3(F)CCNC3)C2)c2nccnc12 (single isomer, unassigned) [Example 309] | < 75 | < 75 |
| C[C@@H]1CN(c2ccc(C#N)c3nccnc23)C[C@H](CN2CCC(F)(C(=O)O)CC2)O1 [Example 228, 1-[(2S,6R)-4-(8-Cyano-quinoxalin-5-yl)-6-methyl-morpholin-2-ylmethyl]-4-fluoro-piperidine-4-carboxylic acid] | < 75 | < 75 |

— patent publication US20210300940A1 (Merck Patent GmbH, priority 2018, published 2021)
